# Assay results reported in the OPERA property sets (Mansouri et al. 2018).
# Settings: not given
SMILES,boiling point,melting point,log10 vapour pressure (mmHg),log10 Henry constant (atm·m³/mol),log10 Koc (L/kg),ready biodegradability,log10 biodegradation half-life (days),log10 Koa
Cc1ccc2nccc(C)c2c1,274 °C,22 °C,–,–,–,–,–,–
C[C@H]1C[C@H]2[C@@H]3CCC4=CC(=O)C=C[C@]4(C)[C@H]3C(=O)C[C@]2(C)[C@@]1(O)C(=O)CO,–,202 °C,–,–,–,–,–,–
C=COCCCCCCCCCCCCCCCCCC,–,30 °C,–,–,–,–,–,–
CCOc1ccc(O)cc1,246 °C,66.5 °C,–,–,–,–,–,–
CCCCCC(=O)Nc1ccccc1,–,95 °C,–,–,–,–,–,–
O=C=NCCCCCCN=C=O,255 °C,-67 °C,–,–,–,–,–,–
C#CC=C,5.1 °C,–,3.13,–,–,–,–,–
COC(=O)C(C)=O,136 °C,–,–,–,–,–,–,–
CCCC1CC1,69.1 °C,–,–,–,–,–,–,–
Clc1ccc(-c2c(Cl)cccc2Cl)c(Cl)c1,–,–,–,-3.85,–,–,–,–
C#CCC=C,42.5 °C,–,–,–,–,–,–,–
Cc1ccc(O)cc1O,268 °C,106 °C,–,–,–,–,–,–
CCN(C(=O)n1nnn(-c2ccccc2Cl)c1=O)C1CCCCC1,–,79 °C,-9.43,–,–,–,–,–
O=C(O)c1ccccc1,249 °C,122 °C,-3.15,–,1.5,readily biodegradable,–,–
CCCCOP(=O)(O)OCCCC,–,-13 °C,–,–,–,not readily biodegradable,–,–
S=C=Nc1ccc(N=C=S)cc1,–,132 °C,–,–,–,–,–,–
NNc1cccc2ccccc12,–,117 °C,–,–,–,–,–,–
C[Si](F)(F)c1ccccc1,–,–,0.881,–,–,–,–,–
O=C(O)C1CCCCC1,232 °C,31.5 °C,–,–,–,–,–,–
C1CN1P1(N2CC2)=NP(N2CC2)(N2CC2)=NP(N2CC2)(N2CC2)=N1,–,148 °C,–,–,–,–,–,–
Oc1c2ccccc2cc2ccccc12,–,152 °C,–,–,–,–,–,–
Cc1cc(C(C)(C)C)cc(C)c1O,248 °C,82.4 °C,–,–,–,–,–,–
COC(=O)N/N=C/c1c[n+]([O-])c2ccccc2[n+]1[O-],–,240 °C,–,–,–,–,–,–
O=C(CCl)OCCOC(=O)CCl,–,45.5 °C,–,–,–,–,–,–
CCC(=O)OCC(C)C,137 °C,-71.4 °C,0.811,–,–,–,–,–
Cl.NCCc1ccc(O)c(O)c1,–,249 °C,–,–,–,–,–,–

SMILES,boiling point,melting point,log10 vapour pressure (mmHg),log10 Henry constant (atm·m³/mol),log10 Koc (L/kg),ready biodegradability,log10 biodegradation half-life (days),log10 Koa
CCCCCCCCC,151 °C,-53.5 °C,0.648,–,–,readily biodegradable,0.954,–
CCCCC(CC)CC,143 °C,-115 °C,–,–,–,–,–,–
CCC(=O)C=C(C)CC,166 °C,–,–,–,–,–,–,–
C=Cc1ccc2ccccc2c1,–,66 °C,–,–,–,–,–,–
COc1cc2c(cc1OC)C(=O)NCC2,–,175 °C,–,–,–,–,–,–
Cc1cccc2c1C=CC2,209 °C,–,–,–,–,–,–,–
C#CCOC(=O)[C@@H](C)Oc1ccc(Oc2ncc(Cl)cc2F)cc1,–,59.5 °C,-7.62,–,–,–,–,–
B1Oc2ccccc2O1,–,12 °C,–,–,–,–,–,–
C[C@@H]1C[C@@H]([C@H](O)CC2CC(=O)NC(=O)C2)C(=O)[C@@H](C)C1,–,119 °C,–,–,–,readily biodegradable,–,–
Fc1cc(F)nc(F)c1,94.5 °C,–,–,–,–,–,–,–
Clc1ccc(-c2ccccc2Cl)c(Cl)c1,–,–,–,–,4.84,–,–,–
CC(O)CN (stereo unspecified),160 °C,25 °C,-0.328,–,–,–,–,–
Cl[C@H]1[C@H](Cl)[C@@H](Cl)[C@@H](Cl)[C@H](Cl)[C@H]1Cl (racemic),–,–,–,-5.5,3.17,–,–,8.29
O=C(Cl)c1ccc2ccccc2c1,305 °C,51 °C,–,–,–,–,–,–
O=C(O)c1c(F)c(F)c(F)c(F)c1F,220 °C,101 °C,–,–,–,–,–,–
CCCOCC(C)C,107 °C,–,–,–,–,–,–,–
COc1cc2c(c3oc(=O)c4c(c13)CCOC4=O)C1C=COC1O2 (stereo unspecified),–,245 °C,–,–,–,–,–,–
O=Cc1ccc(Cl)cc1,214 °C,47.5 °C,–,–,–,–,–,–
CC(C)(C)C1CCCCC1,172 °C,-41.2 °C,0.368,–,–,–,–,–
CCN(N)CC,99 °C,–,–,–,–,–,–,–
OCCCc1ccccn1,260 °C,34 °C,–,–,–,–,–,–
CCCC(=O)c1ccccc1O,–,10 °C,–,–,–,–,–,–
O=C(O)c1ccc(F)c(F)c1,–,123 °C,–,–,–,–,–,–
CCC=C(C)C=C(C)C,138 °C,–,–,–,–,–,–,–
O=C1OC(OC2OC(=O)C(Cl)=C2Cl)C(Cl)=C1Cl (stereo unspecified),–,142 °C,–,–,–,–,–,–
CCOC(=O)CCBr,179 °C,–,–,–,–,–,–,–

SMILES,boiling point,melting point,log10 vapour pressure (mmHg),log10 Henry constant (atm·m³/mol),log10 Koc (L/kg),ready biodegradability,log10 biodegradation half-life (days),log10 Koa
O=S(=O)([O-])CCN1CC[NH+](CCO)CC1,–,234 °C,–,–,–,–,–,–
CC=C1CC2C=CC1C2 (stereo unspecified),146 °C,–,–,–,–,not readily biodegradable,–,–
NCCc1ccc(Br)cc1,–,–,–,–,–,readily biodegradable,–,–
FC(F)(F)C(F)(Cl)Cl,4 °C,-56.6 °C,3.21,–,–,–,–,–
CC(=O)c1ccc(O)cc1O,–,146 °C,–,–,–,–,–,–
COc1cc(C=CC(=O)O)cc(OC)c1OC,–,127 °C,–,–,–,–,–,–
Fc1ccccc1C1=NCC(=S)N(CC(F)(F)F)c2ccc(Cl)cc21,–,138 °C,–,–,–,–,–,–
Clc1ccc(Oc2ccc(Cl)c(Cl)c2)cc1,–,–,-3.98,–,–,–,–,–
N#CCCc1ccccc1,261 °C,-1 °C,–,–,–,–,–,–
S=C1NCCN1,347 °C,203 °C,–,–,–,not readily biodegradable,–,–
CCNC(=O)C(=O)NCC,–,175 °C,–,–,–,–,–,–
Oc1c(Cl)cc(Cl)c2cccnc12,–,180 °C,–,–,–,–,–,–
C=C(C)[C@]1(O)C2OC(=O)C1[C@]1(O)[C@H]3O[C@H]3[C@]3(CO3)[C@]1(C)C2O (stereo partly specified),–,225 °C,–,–,–,–,–,–
C=CCCCCCCCCO,236 °C,–,–,–,–,–,–,–
S=C1SCCS1,307 °C,35 °C,–,–,–,–,–,–
CC(c1ccccc1)c1ccc(O)cc1 (stereo unspecified),–,–,–,–,–,not readily biodegradable,–,–
c1ccc(Nc2ccc3ccccc3c2)cc1,396 °C,108 °C,–,–,–,not readily biodegradable,–,–
CC(C)=CCCC(C)CCO (racemic),224 °C,–,–,–,–,–,–,–
NC(=O)c1ccc(N)cc1,–,182 °C,–,–,–,–,–,–
O=C1CCCc2ccccc21,–,8 °C,–,–,–,–,–,–
C=C(C)c1ccccc1,165 °C,-23.2 °C,0.279,–,–,not readily biodegradable,–,–
Clc1ccc(Oc2cc(Cl)cc(Cl)c2)cc1,–,–,-3.76,–,–,–,–,–
CC(=O)c1ccc(Cl)cc1Cl,–,33.5 °C,–,–,–,–,–,–
OCc1cccc(Cl)c1,237 °C,–,–,–,–,–,–,–
CCCCOC(N)=O,–,53 °C,–,–,–,–,–,–
Cc1ccccc1CN,206 °C,-30 °C,–,–,–,–,–,–

SMILES,boiling point,melting point,log10 vapour pressure (mmHg),log10 Henry constant (atm·m³/mol),log10 Koc (L/kg),ready biodegradability,log10 biodegradation half-life (days),log10 Koa
C=C(C)CC1(CC)C(=O)NC(=S)NC1=O,–,160 °C,–,–,–,–,–,–
CC(=O)OO,110 °C,-0.2 °C,1.16,-5.67,–,–,–,–
Cc1ccc(C(=O)O)o1,–,110 °C,–,–,–,–,–,–
Clc1cc(Cl)c(Cl)c(Oc2ccccc2)c1,–,–,-3.66,–,–,–,–,–
COc1ccccc1NC(=O)CC(C)=O,–,86 °C,–,–,–,–,–,–
NC(=O)C(=O)O,–,–,-6.33,–,–,–,–,–
CC(C)=CCCC(C)O (stereo unspecified),175 °C,–,–,–,–,–,–,–
CC1Cc2ccccc2O1 (stereo unspecified),198 °C,–,–,–,–,–,–,–
CCCCCCCCCC[C@H](O)CC,–,32 °C,–,–,–,–,–,–
ClCCCCCCCCCCCl,–,15.6 °C,–,–,–,–,–,–
Cc1c(Cl)ccc(Cl)c1Cl,–,–,–,-2.82,–,–,–,–
CC(CCl)OC(C)CCl (stereo unspecified),187 °C,-97 °C,-0.252,–,1.67,not readily biodegradable,–,–
OC(COc1ccccc1)COc1ccccc1,–,81.5 °C,–,–,–,–,–,–
ClSC(Cl)(Cl)Cl,148 °C,–,0.477,–,–,–,–,–
CCN(CC)c1cccc2ccccc12,285 °C,–,–,–,–,–,–,–
O=[N+]([O-])c1ccc(Br)cc1,256 °C,127 °C,–,–,2.42,–,–,–
CC1(C)[C@H](/C=C(\Cl)C(F)(F)F)[C@@H]1C(=O)O[C@H](C#N)c1cccc(Oc2ccccc2)c1,–,–,-8.47,–,5.26,–,–,–
CC(C)C(=O)C(C)C,125 °C,-69 °C,1.13,–,–,–,–,–
ON=Cc1ccc(F)cc1,–,83.5 °C,–,–,–,–,–,–
O=C(Nc1ccc(Cl)c(Cl)c1)Nc1cc(Cl)ccc1Oc1ccc(Cl)cc1S(=O)(=O)O,–,–,–,–,–,not readily biodegradable,–,–
C[C@H](NC(=O)[C@H](C)NC(=O)[C@@H](N)CCP(C)(=O)O)C(=O)[O-].[Na+],–,160 °C,–,–,–,–,–,–
Oc1c(Cl)cc(Cl)cc1Cl,–,–,–,–,3.03,readily biodegradable,–,–
C=C(C)C(C)CCC (stereo unspecified),110 °C,–,–,–,–,–,–,–
C=C(C)C(=O)CC,118 °C,-69.5 °C,–,–,–,–,–,–
COc1c(C)c2c(c(O)c1C/C=C(\C)CCC(=O)O)C(=O)OC2,–,141 °C,–,–,–,–,–,–
CNC[C@H](O)[C@@H](O)[C@H](O)[C@H](O)CO,–,128 °C,–,–,–,–,–,–

# Same assay, conditions: fish
SMILES,log10 biotransformation half-life (days),log10 BCF
[2H]C([2H])([2H])C([2H])([2H])C([2H])([2H])C([2H])([2H])C([2H])([2H])C([2H])([2H])C([2H])([2H])C([2H])([2H])C([2H])([2H])C([2H])([2H])C([2H])([2H])C([2H])([2H])C([2H])([2H])C([2H])([2H])C([2H])([2H])C([2H])([2H])[2H],1.47,–
Clc1ccc(-c2c(Cl)cccc2Cl)c(Cl)c1,2.47,–
CCCCCCCCC,0.97,–
C[C@@H]1C[C@@H]([C@H](O)CC2CC(=O)NC(=O)C2)C(=O)[C@@H](C)C1,–,0.45
Cl[C@H]1[C@H](Cl)[C@@H](Cl)[C@@H](Cl)[C@H](Cl)[C@H]1Cl (racemic),–,3.04
O=Cc1ccc(Cl)cc1,0.01,0.32
CC=C1CC2C=CC1C2 (stereo unspecified),-0.56,2.04
S=C1NCCN1,–,0.26
COc1cc(Cl)c(Cl)c(Cl)c1,–,3.09
c1ccc(Nc2ccc3ccccc3c2)cc1,-0.41,2.37
C=C(C)c1ccccc1,-0.71,1.8
OCc1cccc(Cl)c1,–,1.29
Cc1ccccc1CN,–,0.66
CC(CCl)OC(C)CCl (stereo unspecified),-1.07,1.08
O=C(Nc1ccc(Cl)c(Cl)c1)Nc1cc(Cl)ccc1Oc1ccc(Cl)cc1S(=O)(=O)O,–,1.87
Oc1c(Cl)cc(Cl)cc1Cl,-0.57,1.94
